Results reported in US20250144067A1, “PERSONALIZED STARVATION THERAPY FOR CANCER” (Faeth Therapeutics, Inc., priority 2021, published 2025).
Where a name gives a salt, the structure may show the parent alone. Read-outs that look alike come from different tables or passages of the source.

Tests used:
[1] = system: NCI-H292 lung cancer cells; experiment: FDA drug screening, complete media vs cholesterol-free media without statin (TABLE 1); assay type: cell-based, human
[2] = system: NCI-H292 lung cancer cells; experiment: FDA drug screening, complete media vs cholesterol-free media with simvastatin (TABLE 2); assay type: cell-based, human
[3] = Complete minus Cholesterol-free, greater than 0 enhanced anti-cancer activity, about 0 neutral, below 0 antagonist
[4] = NCI-H292 cells, FDA drug library screen, cholesterol-free media without statin
[5] = NCI-H292 cells, FDA drug library screen, complete media
[6] = NCI-H292 cells, FDA library drug in cholesterol-free media with simvastatin 0.04 μM
[7] = NCI-H292 cells, FDA library drug in complete media
[8] = complete media vs cholesterol-free media + simvastatin (0.04 μM), >0 enhanced anti-cancer activity, about 0 neutral, <0 antagonist
[9] = complete media minus cholesterol-free media + simvastatin, […]
[10] = Complete minus Cholesterol-free, greater than 0 enhanced anti-cancer activity, about 0 neutral, below 0 antagonists
[11] = NCI-H292 cells in cholesterol-free media without statin
[12] = NCI-H292 cells in complete media
[13] = NCI-H292 cells, drug in cholesterol-free media with simvastatin 0.04 μM
[14] = NCI-H292 cells, drug in complete media
[15] = NCI-H292 cells, cholesterol-free media without statin, FDA drug library screen
[16] = NCI-H292 cells, complete media, FDA drug library screen
[17] = complete vs cholesterol-free media, >0 enhanced anti-cancer activity, about 0 neutral, <0 antagonist
[18] = NCI-H292 cells, FDA drug library screen, cholesterol-free media with simvastatin 0.04 μM
[19] = NCI-H292 cells, cholesterol-free media without statin
[20] = Complete minus Cholesterol-free, >0 enhanced anti-cancer activity, about 0 neutral, <0 antagonist
[21] = NCI-H292 cells, cholesterol-free media with simvastatin 0.04 μM, cell growth value in FDA drug screen
[22] = NCI-H292 cells, complete media, cell growth value in FDA drug screen
[23] = complete media minus cholesterol-free media + simvastatin, >0 enhanced anti-cancer activity, about 0 neutral, <0 antagonist
[24] = NCI-H292 cells, cholesterol-free media with simvastatin 0.04 μM, FDA drug library screen (TABLE 2)
[25] = NCI-H292 cells, complete media, FDA drug library screen (TABLE 2)
[26] = complete media minus cholesterol-free media + simvastatin (0.04 μM), >0 enhanced anti-cancer activity, about 0 neutral, <0 antagonist
[27] = complete vs cholesterol-free media, greater than 0 enhanced anti-cancer activity, about 0 neutral, below 0 antagonists

CO[C@H]1C[C@@H]2CC[C@@H](C)[C@@](O)(O2)C(=O)C(=O)N2CCCC[C@H]2C(=O)O[C@H]([C@H](C)C[C@@H]2CC[C@@H](O)[C@H](OC)C2)CC(=O)[C@H](C)/C=C(\C)[C@@H](O)[C@@H](OC)C(=O)[C@H](C)C[C@H](C)/C=C/C=C/C=C/1C [Rapamycin]
Difference [1, 3]: −0.13 | Cholesterol-free [1, 4]: 0.3515 | Complete [1, 5]: 0.2187 | Cholesterol-free media + simvastatin (0.04 μM) [2, 6]: 1.159 | Complete Media [2, 7]: 0.8704 | Difference [2, 8]: −0.29

Oxytocin (acetate)
Difference ([1]; Complete minus Cholesterol-free, […]): −0.16 | Cholesterol-free [1, 4]: 1.734 | Complete [1, 5]: 1.57 | Cholesterol-free media + simvastatin (0.04 μM) ([2]; NCI-H292 cells, cholesterol-free media with simvastatin 0.04 μM, […]): 0.9906 | Difference [2, 9]: 0.04

N#CC[C@H](C1CCCC1)n1cc(-c2ncnc3[nH]ccc23)cn1 [Ruxolitinib (S enantiomer)]
Difference [1, 10]: −0.48 | Cholesterol-free [1, 11]: 1.03 | Complete [1, 12]: 0.5541 | Cholesterol-free media + simvastatin (0.04 μM) [2, 13]: 0.9634 | Complete Media [2, 14]: 0.7007 | Difference [2, 8]: −0.26

CN(C)CCC=C1c2ccccc2CCc2ccccc21 [Amitriptyline (hydrochloride)]
Cholesterol-free [1, 15]: 0.8567 | Complete [1, 16]: 1.344 | Difference [1, 17]: 0.49 | Cholesterol-free media + simvastatin (0.04 μM) [2, 18]: 0.9551 | Complete Media [2, 5]: 0.8184 | Difference [2, 8]: −0.14

Tocofersolan
Cholesterol-free [1, 19]: 0.7811 | Complete ([1]; NCI-H292 cells, complete media): 0.4609 | Difference ([1]; complete vs cholesterol-free media, […]): −0.32 | Cholesterol-free media + simvastatin (0.04 μM) [2, 18]: 0.3462 | Complete Media [2, 5]: 0.6285 | Difference [2, 9]: 0.28

N[C@@H](Cc1cc(I)c(Oc2ccc(O)c(I)c2)c(I)c1)C(=O)O [Liothyronine]
Difference [1, 20]: −0.26 | Cholesterol-free [1, 19]: 1.173 | Complete ([1]; NCI-H292 cells, complete media): 0.9078 | Cholesterol-free media + simvastatin (0.04 μM) [2, 18]: 1.186 | Complete Media [2, 5]: 1.048 | Difference [2, 8]: −0.14

CO/N=C(\C(=O)N[C@@H]1C(=O)N2C(C(=O)O)=C(Cn3ccc(=N)n3CCO)CS[C@H]12)c1csc(N)n1.O=S(=O)(O)O [Cefoselis (sulfate)]
Cholesterol-free [1, 15]: 0.955 | Complete [1, 16]: 1.116 | Difference [1, 17]: 0.16 | Cholesterol-free media + simvastatin (0.04 μM) [2, 21]: 1.07 | Complete Media [2, 22]: 1.107 | Difference [2, 23]: 0.04

Cc1nc2n(c(=O)c1CCN1CCC(c3noc4cc(F)ccc34)CC1)CCCC2O (centres unmarked) [Paliperidone]
Difference [1, 3]: −0.18 | Cholesterol-free [1, 4]: 0.8391 | Complete [1, 5]: 0.6569 | Cholesterol-free media + simvastatin (0.04 μM) [2, 6]: 1.086 | Complete Media [2, 7]: 0.8023 | Difference [2, 8]: −0.28

CC(Oc1c(Cl)cccc1Cl)C1=NCCN1 (centres unmarked) [Lofexidine (hydrochloride)]
Difference [1, 10]: −0.50 | Cholesterol-free [1, 11]: 1.453 | Complete [1, 12]: 0.95 | Cholesterol-free media + simvastatin (0.04 μM) [2, 21]: 1.271 | Complete Media [2, 22]: 1.376 | Difference [2, 23]: 0.10

Clc1ccccc1CN1CCc2sccc2C1 [Ticlopidine (hydrochloride)]
Difference [1, 10]: −0.88 | Cholesterol-free [1, 11]: 1.64 | Complete [1, 12]: 0.7613 | Cholesterol-free media + simvastatin (0.04 μM) [2, 21]: 1.416 | Complete Media [2, 22]: 1.478 | Difference [2, 23]: 0.06

CC(C)CN(C[C@@H](O)[C@H](Cc1ccccc1)NC(=O)O[C@H]1CO[C@H]2OCC[C@H]21)S(=O)(=O)c1ccc(N)cc1 [Darunavir]
Cholesterol-free [1]: 1.103 | Complete [1]: 0.8067 | Difference [1]: −0.30 | Cholesterol-free media + simvastatin (0.04 μM) [2]: 0.9174 | Complete Media [2]: 0.7724 | Difference [2]: −0.14

CC(=O)Oc1cc2c(s1)CCN(C(C(=O)C1CC1)c1ccccc1F)C2 (centres unmarked) [Prasugrel (hydrochloride)]
Cholesterol-free [1, 15]: 0.9393 | Complete [1, 16]: 1.044 | Difference [1, 17]: 0.10 | Cholesterol-free media + simvastatin (0.04 μM) [2, 13]: 1.213 | Complete Media [2, 14]: 1.05 | Difference [2, 8]: −0.16

COc1cc2ncnc(Nc3ccc(F)c(Cl)c3)c2cc1OCCCN1CCOCC1 [Gefitinib]
Difference [1, 20]: −0.25 | Cholesterol-free [1, 19]: 0.6996 | Complete ([1]; NCI-H292 cells, complete media): 0.4472 | Cholesterol-free media + simvastatin (0.04 μM) [2, 21]: 0.5074 | Complete Media [2, 22]: 0.6027 | Difference [2, 23]: 0.10

Cc1nc(Nc2ccc(F)cc2)nc(N2CCc3ccccc3C2C)c1C (centres unmarked) [Revaprazan (hydrochloride)]
Cholesterol-free [1, 15]: 1.192 | Complete [1, 16]: 1.344 | Difference [1, 17]: 0.15 | Cholesterol-free media + simvastatin (0.04 μM) [2, 24]: 1.005 | Complete Media [2, 25]: 0.9357 | Difference [2, 26]: −0.07

COc1cc2nccc(Oc3ccc(NC(=O)Nc4cc(C)on4)c(Cl)c3)c2cc1OC [Tivozanib]
Cholesterol-free [1, 19]: 1.298 | Complete ([1]; NCI-H292 cells, complete media): 0.868 | Difference [1, 27]: −0.43 | Cholesterol-free media + simvastatin (0.04 μM) [2, 18]: 0.868 | Complete Media [2, 5]: 1.06 | Difference [2, 23]: 0.19

N[C@@H](CSCC(=O)O)C(=O)O [Carbocisteine]
Difference [1, 20]: −0.04 | Cholesterol-free [1, 15]: 1.486 | Complete [1, 16]: 1.447 | Cholesterol-free media + simvastatin (0.04 μM) [2, 24]: 0.934 | Complete Media [2, 25]: 0.9494 | Difference [2, 26]: 0.02

NC(=O)c1cc[n+](CC2=C(C(=O)O)N3C(=O)[C@@H](NC(=O)[C@@H](c4ccccc4)S(=O)(=O)[O-])[C@H]3SC2)cc1 [Cefsulodin (sodium)]
Cholesterol-free [1, 19]: 1.045 | Complete ([1]; NCI-H292 cells, complete media): 0.6569 | Difference [1, 27]: −0.39 | Cholesterol-free media + simvastatin (0.04 μM) [2, 18]: 1.191 | Complete Media [2, 5]: 1.113 | Difference [2, 8]: −0.08

CCOc1nc2cccc(C(=O)OCc3oc(=O)oc3C)c2n1Cc1ccc(-c2ccccc2-c2noc(=O)[nH]2)cc1 [Azilsartan medoxomil]
Difference [1, 10]: −0.49 | Cholesterol-free [1, 11]: 1.119 | Complete [1, 12]: 0.6328 | Cholesterol-free media + simvastatin (0.04 μM) [2, 18]: 1.394 | Complete Media [2, 5]: 1.269 | Difference [2, 8]: −0.12

CC(C)(C)C(=O)Oc1ccc(S(=O)(=O)Nc2ccccc2C(=O)NCC(=O)O)cc1 [Sivelestat (sodium tetrahydrate)]
Difference [1, 20]: −0.30 | Cholesterol-free [1, 19]: 1.29 | Complete ([1]; NCI-H292 cells, complete media): 0.9928 | Cholesterol-free media + simvastatin (0.04 μM) [2, 24]: 1.071 | Complete Media [2, 25]: 1.039 | Difference [2, 26]: −0.03

CN1CCC[C@@H]1Cc1c[nH]c2ccc(CCS(=O)(=O)c3ccccc3)cc12 [Eletriptan (hydrobromide)]
Cholesterol-free [1, 19]: 1.406 | Complete ([1]; NCI-H292 cells, complete media): 1.08 | Difference [1, 27]: −0.33 | Cholesterol-free media + simvastatin (0.04 μM) [2, 6]: 1.33 | Complete Media [2, 7]: 0.9128 | Difference [2, 8]: −0.42

NC(N)=Nc1nc(CSCCC(N)=NS(N)(=O)=O)cs1 [Famotidine]
Difference [1, 3]: −0.07 | Cholesterol-free [1, 4]: 1.016 | Complete [1, 5]: 0.9424 | Cholesterol-free media + simvastatin (0.04 μM) [2, 6]: 1.666 | Complete Media [2, 7]: 1.298 | Difference [2, 8]: −0.37

CC(C)NC[C@H](O)COc1cccc2ccccc12.Cl [(S)-(−)-Propranolol (hydrochloride)]
Difference [1, 10]: −0.61 | Cholesterol-free [1, 11]: 1.5 | Complete [1, 12]: 0.8879 | Cholesterol-free media + simvastatin (0.04 μM) [2, 24]: 1.665 | Complete Media [2, 25]: 1.663 | Difference [2, 26]: 0.00
